Results taken from patent US9562053B2, “Benzo-fused heterocyclic derivatives useful as agonists of GPR120” (Janssen Pharmaceutica NV, priority 2013, dated 2017).

Target: T1, long form of human GPR120 (Homo sapiens, UniProt Q5NUL3)
T1 construct: host or cells: PathHunter CHO-K1 GPR120 β-Arrestin Cell Line
T1 sequence (Q5NUL3 1-377 isoform Q5NUL3-1): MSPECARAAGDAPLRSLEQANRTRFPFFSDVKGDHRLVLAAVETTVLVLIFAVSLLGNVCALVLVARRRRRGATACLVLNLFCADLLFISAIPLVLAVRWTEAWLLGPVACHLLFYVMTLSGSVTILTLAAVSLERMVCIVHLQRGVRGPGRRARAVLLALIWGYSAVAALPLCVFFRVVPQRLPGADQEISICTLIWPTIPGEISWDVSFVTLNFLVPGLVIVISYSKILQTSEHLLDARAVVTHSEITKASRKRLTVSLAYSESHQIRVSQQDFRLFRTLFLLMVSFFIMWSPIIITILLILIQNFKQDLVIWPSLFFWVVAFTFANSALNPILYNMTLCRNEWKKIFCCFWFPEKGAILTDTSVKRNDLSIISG
Assay: Human GPR120 DiscoveRx PathHunter Beta-Arrestin Assay, Procedure β-arrestin A (3000 cells per well)
Assay type: cell-based
Conditions: read-out: GPR120 B-arrestin A EC50
Summary of the method: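 PathHunter CHO-K1 cells with long-form receptor, 3000/well, seeded overnight at 37 °C; equilibrated 60 min at 37 °C in HBSS/20 mM HEPES/0.1% BSA, pH 7.4. Compound serial dilutions (25–0.012 μM) added for 90 min at 37 °C, detection 60 min at room temperature, luminescence read; EC50 from % of positive control, Hill slope fixed at 1.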

Compound | EC50
CC#Cc1cc(COc2ccc(CCC(=O)O)c(C)c2C)c2oc(C)cc2c1 [Compound 83, 3-{2,3-Dimethyl-4-[(2-methyl-5-prop-1-yn-1-yl-1-benzofuran-7-yl)methoxy]phenyl}propanoic acid] | 440 nM
Cc1cc2cc(Cl)cc(COc3ccc(CCC(=O)O)c(C)c3C)c2s1 [Compound 91, 3-{4-[(5-Chloro-2-methyl-1-benzothiophen-7-yl)methoxy]-2,3-dimethylphenyl}propanoic acid] | 629 nM
CCc1cc2ccc(OC(F)F)c(COc3ccc(CCC(=O)O)c(C)c3C)c2o1 [Compound 70, 3-(4-{[6-(Difluoromethoxy)-2-ethyl-1-benzofuran-7-yl]methoxy}-2,3-dimethylphenyl)propanoic acid] | 2500 nM
CCc1cc2cc(F)cc(COc3c(F)cc(CCC(=O)O)cc3F)c2o1 [Compound 17, 3-{4-[(2-Ethyl-5-fluoro-1-benzofuran-7-yl)methoxy]-3,5-difluorophenyl}propanoic acid] | 455 nM
CCc1cc2cc(Cl)c(OC(F)F)c(COc3ccc(CCC(=O)O)c(C)c3C)c2o1 [Compound 69, 3-(4-{[5-Chloro-6-(difluoromethoxy)-2-ethyl-1-benzofuran-7-yl]methoxy}-2,3-dimethylphenyl)propanoic acid] | 223 nM
Cc1c(CCC(=O)O)ccc(OCc2cc(F)cc3cc(CC(C)C)oc23)c1C [Compound 23, 3-(4-{[5-Fluoro-2-(2-methylpropyl)-1-benzofuran-7-yl]methoxy}-2,3-dimethylphenyl)propanoic acid] | 470 nM
Cc1c(CCC(=O)O)ccc(OCc2cc(Cl)cc3cn(C)nc23)c1C [Compound 8, 3-{4-[(5-Chloro-2-methyl-2H-indazol-7-yl)methoxy]-2,3-dimethylphenyl}propanoic acid] | 613 nM
Cc1nc2c(COc3ccc(CCC(=O)O)c(C)c3C)cc(Cl)cc2s1 [Compound 98, 3-{4-[(6-Chloro-2-methyl-1,3-benzothiazol-4-yl)methoxy]-2,3-dimethylphenyl}propanoic acid] | 154 nM
CCOc1ccc2cc(CC)oc2c1COc1ccc(CCC(=O)O)c(C)c1C [Compound 66, 3-{4-[(6-Ethoxy-2-ethyl-1-benzofuran-7-yl)methoxy]-2,3-dimethylphenyl}propanoic acid] | 1410 nM
Cc1oc2c(COc3ccc(CCC(=O)O)c(C)c3C)cc(F)cc2c1F [Compound 5, 3-{4-[(3,5-Difluoro-2-methyl-1-benzofuran-7-yl)methoxy]-2,3-dimethylphenyl}propanoic acid] | 949 nM
Cc1cc2c(COc3ccc(CCC(=O)O)c(C)c3C)cc(Cl)cc2o1 [Compound 81, 3-{4-[(6-Chloro-2-methyl-1-benzofuran-4-yl)methoxy]-2,3-dimethylphenyl}propanoic acid] | 817 nM
Cc1cc2c(F)c(OC(F)(F)F)c(F)c(COc3ccc(CCC(=O)O)c(F)c3F)c2o1 [Compound 75, 3-(4-{[4,6-Difluoro-2-methyl-5-(trifluoromethoxy)-1-benzofuran-7-yl]methoxy}-2,3-difluorophenyl)propanoic acid] | 394 nM
CCCc1cc2cc(I)cc(COc3ccc(CCC(=O)O)c(C)c3C)c2o1 [Compound 47, 3-{4-[(5-Iodo-2-propyl-1-benzofuran-7-yl)methoxy]-2,3-dimethylphenyl}propanoic acid] | 197 nM
Cc1c(CCC(=O)O)ccc(OCc2cc(F)cc3cc(C4CCCC4)oc23)c1C [Compound 18, 3-{4-[(2-Cyclopentyl-5-fluoro-1-benzofuran-7-yl)methoxy]-2,3-dimethylphenyl}propanoic acid] | 1670 nM
CCc1cc2cc(OC(F)(F)F)cc(COc3ccc(CCC(=O)O)c4c3CCC4)c2o1 [Compound 52, 3-(7-{[2-Ethyl-5-(trifluoromethoxy)-1-benzofuran-7-yl]methoxy}-2,3-dihydro-1H-inden-4-yl)propanoic acid] | 374 nM
CCc1cc2cc(Cl)c(OCCOC)c(COc3ccc(CCC(=O)O)c(C)c3C)c2o1 [Compound 63, 3-(4-{[5-Chloro-2-ethyl-6-(2-methoxyethoxy)-1-benzofuran-7-yl]methoxy}-2,3-dimethylphenyl)propanoic acid] | 231 nM
CCc1cc2cc(OC(F)(F)F)cc(COc3ccc(CCC(=O)O)c(C)c3C)c2o1 [Compound 12, 3-(4-{[2-Ethyl-5-(trifluoromethoxy)-1-benzofuran-7-yl]methoxy}-2,3-dimethylphenyl)propanoic acid] | 151 nM
CCc1cc2cc(Cl)cc(COc3ccc(CCC(=O)O)c4c3CCC4)c2o1 [Compound 54, 3-{7-[(5-Chloro-2-ethyl-1-benzofuran-7-yl)methoxy]-2,3-dihydro-1H-inden-4-yl}propanoic acid] | 429 nM
Cc1oc2cc(Cl)cc(COc3ccc(CCC(=O)O)c(C)c3C)c2c1C [Compound 80, 3-{4-[(6-Chloro-2,3-dimethyl-1-benzofuran-4-yl)methoxy]-2,3-dimethylphenyl}propanoic acid] | 249 nM
CCCc1cc2cc(Cl)cc(COc3ccc(CCC(=O)O)c(F)c3F)c2o1 [Compound 59, 3-{4-[(5-Chloro-2-propyl-1-benzofuran-7-yl)methoxy]-2,3-difluorophenyl}propanoic acid] | 146 nM
CCCc1cc2cc(Cl)cc(COc3ccc(CCC(=O)O)c(C)c3C#N)c2o1 [Compound 41, 3-{4-[(5-Chloro-2-propyl-1-benzofuran-7-yl)methoxy]-3-cyano-2-methylphenyl}propanoic acid] | 626 nM
Cc1c(CCC(=O)O)ccc(OCc2cc(F)cc3cc(C(F)F)oc23)c1C [Compound 32, 3-(4-{[2-(Difluoromethyl)-5-fluoro-1-benzofuran-7-yl]methoxy}-2,3-dimethylphenyl)propanoic acid] | 2910 nM
Cc1c(CCC(=O)O)ccc(OCc2cc(F)cc3cc(C(C)C)oc23)c1C [Compound 22, 3-(4-{[5-Fluoro-2-(1-methylethyl)-1-benzofuran-7-yl]methoxy}-2,3-dimethylphenyl)propanoic acid] | 797 nM
Cc1cc2c(F)c(OC(F)(F)F)c(F)c(COc3ccc(CCC(=O)O)c(C)c3C)c2o1 [Compound 71, 3-(4-{[4,6-Difluoro-2-methyl-5-(trifluoromethoxy)-1-benzofuran-7-yl]methoxy}-2,3-dimethylphenyl)propanoic acid] | 45 nM
CCCc1cc(OCc2cc(OC(F)(F)F)cc3cc(CC)oc23)c(F)cc1CCC(=O)O [Compound 50, 3-(4-{[2-Ethyl-5-(trifluoromethoxy)-1-benzofuran-7-yl]methoxy}-5-fluoro-2-propylphenyl)propanoic acid] | 496 nM
CC#Cc1cc(COc2ccc(CCC(=O)O)c(C)c2C)c2oc(CCC)cc2c1 [Compound 58, 3-{2,3-Dimethyl-4-[(2-propyl-5-prop-1-yn-1-yl-1-benzofuran-7-yl)methoxy]phenyl}propanoic acid] | 410 nM
Cc1cc2cc(F)cc(COc3ccc(CCC(=O)O)c(C)c3C)c2o1 [Compound 2, 3-{4-[(5-Fluoro-2-methyl-1-benzofuran-7-yl)methoxy]-2,3-dimethylphenyl}propanoic acid] | 374 nM
CCOc1c(Cl)cc2cc(CC)oc2c1COc1ccc(CCC(=O)O)c(C)c1C [Compound 62, 3-{4-[(5-Chloro-6-ethoxy-2-ethyl-1-benzofuran-7-yl)methoxy]-2,3-dimethylphenyl}propanoic acid] | 274 nM
